Measured values as given in patent publication US20230060350A1, “BACTERICIDAL COMPOSITION FOR CONTROLLING GUMMY STEM BLIGHT OF MELONS” (Institute of Plant Protection and Agro-products Safety, …, priority 2022, published 2023).

Assays:
[1] = test system: Stagonosporopsis cucurbitacearum; experiment: Indoor toxicity test, hypha growth assay on drug-containing PDA plates; assay type: cell-based; settings: hypha growth inhibition, 25° C.
Method: Embodiment 1 Indoor toxicity test of Pydiflumetofen and the Thifluzamide on Stagonosporopsis cucurbitacearum
Bactericidal properties of the Pydiflumetofen and the Thifluzamide were analyzed in detail. EC50 […] of two single components such as the Pydiflumetofen and the Thifluzamide (hereinafter referred to as agents) was tested first; a combination ratio of the two agents was set by a Wadley method according to the EC50 of the two single agents, and according to a Wadley synergistic coefficient SR value.
A test object was Stagonosporopsis cucurbitacearum of melons, but was not limited herein. […] Hypha growth assay was adopted during the test; drug containing media were prepared according to different treatments; hypha blocks having a diameter of 5 mm were prepared on the edges of the pre-culture colonies by using the sterilized puncher and respectively transferred onto medium plates with different drug content; a colony diameter was tested by a crossing method; the colony diameter (mm) was measured; and a growth inhibition ratio was calculated by the following formula: […]
Interaction of the mixture was evaluated according to the Wadley method; and a calculation formula was as follows: […]
In the formula, a and b were content ratios of various components in the mixture; and a mixing effect was analyzed based on the value SR.

[2] = test system: gummy stem blight of Trichosanthes kirilowii maxim; experiment: Field control experiment on gummy stem blight of Trichosanthes kirilowii maxim; assay type: in vivo
Text: Embodiment 3: Field Control Experiment of Pydiflumetofen and the Thifluzamide on Gummy Stem Blight of Trichosanthes kirilowii maxim
Control tests of gummy stem blight of Trichosanthes kirilowii maxim were respectively conducted in 2020 and 2021. Test data in 2021 were collected as follows: the 20% Pydiflumetofen·Thifluzamide suspension, 20% Pydiflumetofen suspension, 30% Thifluzamide suspension and 25% Azoxystrobin suspension in embodiment 2 were respectively used in the experiment. The variety of the tested Trichosanthes kirilowii maxim was “Wanlou 9”; the test location was a Trichosanthes kirilowii maxim field in Gangji experimental production base in Anhui Academy of Agricultural Sciences; water consumption per mu was 30 kg; the Trichosanthes kirilowii maxim was subjected to agent control at an early stage of growing and flowering (May 20); and disease condition survey was conducted within 30 days (Table 2).

[3] = test system: gummy stem blight of the watermelon; experiment: Greenhouse control experiment on gummy stem blight of watermelon; assay type: in vivo
Text: Embodiment 4: Field Control Experiment of Pydiflumetofen and the Thifluzamide on Gummy Stem Blight of Watermelon Control tests of gummy stem blight of watermelons were respectively conducted in 2020 and 2021. Test data in 2021 were collected as follows: the 18% Pydiflumetofen·Thifluzamide water dispersible granules, 20% Pydiflumetofen suspension, 30% Thifluzamide suspension and 25% Azoxystrobin suspension in embodiment 1 were respectively used in the experiment. The variety of the tested watermelon was “Zaojia 8424”; the test location was a watermelon greenhouse in Gangji experimental production base in Anhui Academy of Agricultural Sciences; water consumption per mu was 30 kg; the watermelons were subjected to agent control for the first time within 30 days after field planting of watermelon seedlings, and then subjected to agent control for the second time within 10 days after the first control; and disease condition survey was conducted within 30 days after the second agent control (Table 3).

SMILES | EC50 [1] [ppm] | Control effect (in words) [2] | Control effect (in words) [3]
CON(C(=O)c1cn(C)nc1C(F)F)C(C)Cc1c(Cl)cc(Cl)cc1Cl (racemic) [Pydiflumetofen, 3-(difluoromethyl)-N-methoxy-1-methyl-N-[(RS)-1-methyl-2-(2,4,6-trichlorophenyl)ethyl]pyrazol-4-formamide] | 0.0109 | significant control effects | significant control effects
Cc1nc(C(F)(F)F)c(C(=O)Nc2c(Br)cc(OC(F)(F)F)cc2Br)s1 [Thifluzamide] | 0.0451 | significant control effects | significant control effects
